Assay results: patent publication US10973932B2, “Preclinical model of neonatal necrotizing enterocolitis” (University of South Florida, priority 2017, dated 2021)

B1: recombinant haptoglobin: recombinant haptoglobin, a natural chelator of free hemoglobin (protein, UniProt P00738 19-406, looked up)
Haptoglobin: VDSGNDVTDIADDGCPKPPEIAHGYVEHSVRYQCKNYYKLRTEGDGVYTLNDKKQWINKAVGDKLPECEADDGCPKPPEIAHGYVEHSVRYQCKNYYKLRTEGDGVYTLNNEKQWINKAVGDKLPECEAVCGKPKNPANPVQRILGGHLDAKGSFPWQAKMVSHHNLTTGATLINEQWLLTTAKNLFLNHSENATAKDIAPTLTLYVGKKQLVEIEKVVLHPNYSQVDIGLIKLKQKVSVNERVMPICLPSKDYAEVGRVGYVSGWGRNANFKFTDHLKYVMLPVADQDQCIRHYEGSTVPEKKTPKSPVGVQPILNEHTFCAGMSKYQEDTCYGDAGSAFAVHDLEEDTWYATGILSFDKSCAVAEYGVYVKVTSIQDWVQKTIAEN

Tests used:
[1] = test system: anemic-transfused mice; assay: RBC transfusion-associated NEC-like injury in anemic-transfused mouse pups; type: in vivo
Experimental: Experimental design: Animal studies were approved by the Institutional Animal Care and Use Committee. C57BL/6 mice pups were studied in 4 groups: (a) naïve control; (b) transfusion control; (c) anemic control; and (d) anemic-transfused mice. Naïve controls were maintained without intervention. Transfusion controls received an intravenous RBC transfusion (20 mL/kg into the retro-orbital venous plexus, injected in 2 aliquots on each side) on postnatal day 11 (P11). RBCs for transfusion were collected in a sterile fashion from adult FVB/NJ donors after sacrifice into citrate-phosphate-dextrose-adenine-1 (CPDA-1; Sigma, St. Louis, Mo.; 6 parts blood: 1 part CPDA-1). […] Hematocrits and RBC indices were measured at each phlebotomy and then everyday on P11-13; 5 μL blood was diluted 1:20 in Cellpak reagent (Sysmex, Kobe, Japan) and analyzed in the Sysmex XT-2000iV automated veterinary hematology analyzer. […] To measure gut barrier function, FITC-dextran was administered by gavage (10 kDa, 400 mg/kg) 4 hrs before sacrifice and measured the FITC fluorescence signal in plasma samples obtained just prior to sacrifice. To measure regional blood flow, […] fluorescence-labeled microspheres were administered intravenously (15 μm, ThermoFisher, Waltham, Mass.) 1 hr before sacrifice and the fluorescence signal was measured in tissue lysates. […]

[2] = test system: monocytes and macrophages; assay: Depletion of intestinal monocytes/macrophages (flow cytometry); type: in vivo, mouse; conditions: CSF1R-DTR/mCherry×Lyz2-cre pups; 5 ng/g weight; FIG. 7E
Experimental: Flow cytometry: Macrophages were defined by flow cytometry (BD LSRII, Franklin Lakes, N.J.). Intestinal tissue was washed with Hanks' balanced-salt solution (HBSS) containing 1 mM DTT (Sigma) to remove mucus, and then treated first with HBSS containing 1 mM EDTA (Sigma)×20 min at 37° C., and then with HBSS containing 1 mM collagenase type IV (Sigma)×2 hrs at 37° C. Cell suspension was stained using established protocols with the L-D viability dye (ThermoFisher), lineage cocktail (BioLegend, San Diego, Calif.), and antibodies against CD11b, Ly6C, F4/80, Ly6G, and Ly6B (BioLegend).
Murine intestinal macrophages: Murine intestinal macrophages were isolated by immunomagnetic separation, where these cells were first stained with phycoerythrin (PE)-conjugated anti-CD11b, anti-F4/80, and anti-Ly6C antibodies and then separated using anti-PE-conjugated ferromagnetic beads (Miltenyi Biotec, San Diego, Calif.). In some experiments, monocytes and macrophages were depleted by administering clodronate liposomes (Clodrosome, Brentwood, Tenn.). A 50 mg/kg intraperitoneal dose was used and an identical dose by enema on postnatal day 8, which depleted >80% monocytes and macrophages in 72 hrs (pre-determined optimum).
These findings were confirmed using a second, more specific approach for macrophage depletion. […]

[3] = test system: NF-κB; assay: NF-κB reporter RAW264.7 macrophages stimulated with 7-day-stored RBCs; type: cell-based, murine; conditions: haptoglobin 10 μg/mL added with 7-day RBCs; FIG. 5H

Molecule | transfusion-associated NEC-like injury (onset, severity of bowel injury) ([1]; CSF1R-DTR/mCherry×Lyz2-cre anemic-transfused pups, 5 ng/g weight, FIGS. 7E-7G) | inflammatory F4/80mid CD115+Ly6Chi macrophages (not resident macrophages) [2] | transfusion-associated NEC-like injury (onset, severity of bowel injury) ([1]; intravenous 10 μg/g body weight 1 hr before transfusion, FIGS. 5I-5J) | inflammatory effect of 7-day-stored RBC units on macrophages (relative NF-κB activity) [3]
diphtheria toxin | protective | selectively depleted |  | 
B1 |  |  | protective | reversed
